Laboratory results reported in US10166253B2, “Positively charged co-polymers for use as antimicrobial agents” (priority 2014, dated 2019).

Columns and labels:
[1] = tested on: P. aeruginosa (Strain PAO1); assay: Antimicrobial susceptibility testing by flow cytometry-based assay (LIVE/DEAD BacLight, Syto9/PI); type: cell-based
Procedure: (§1) E. coli (strain NCTC 10418), P. aeruginosa (Strain PAO1) and S. aureus (Wood 46, NCTC 7121) cells were grown in 5 mL of Todd Hewitt Broth medium (THB; Sigma-Aldrich). Bacteria were cultivated at 37° C. for 15 h in a 15 mL tube to obtain late-log phase cultures. Bacterial cultures were pelleted at 3096 g for 10 minutes; the supernatant was discarded and bacteria were resuspended in phosphate-buffered saline (PBS) supplemented with 40 mg/ml human albumin to mimic chemical properties of blood. Bacteria were diluted to a standardized inoculum of 10^9 CFU/mL.
(§2) Bacteria were treated with GA, LL-37, Piperacillin/Tazobactam or Vancomycin in varying concentrations, i.e. 50, 25, 10 or 2 μg/ml, for 30 minutes. As a positive control, bacteria were treated with 7% isopropanol. Hereafter, bacteria were pelleted at 3096 g for 10 minutes; the supernatant was discarded and bacteria were resuspended in PBS. The antimicrobial effect was tested in a well-established and widely used flow cytometry-based assay (LIVE/DEAD® BacLight™ Bacterial Viability and Counting Kit (L34856), Molecular Probes/Invitrogen) according to manufacturer's manual.
(§3) For each bacteria, the flow cytometry-based assay was repeated four times.
The antibacterial effect of GA on the gram-negative strain P. aeruginosa was tested by carrying out an experiment as described in Example 1. […] Although the untreated control stained positive for PI, this seemed to be explained by the capability of intact P. aeruginosa to secrete large quantities of DNA to the extracellular milieu.

[2] = tested on: E. coli (strain NCTC 10418); assay: as above; type: cell-based, Escherichia coli
Procedure: as §1, §2, §3
Flow cytometry was used to determine the antimicrobial activity of GA and LL-37. The flow cytometry diagrams show the results after treatment with 50 μg/ml LL-37, GA, piperacillin/tazobactam, 7% isopropanol and the untreated control. […] This gating strategy was primarily applied to avoid counting beads in the upper right corner of the FS-SS. […] Thus, a two-color fluorescence assay of bacterial viability, including PI and Syto9 staining, was applied. Syto9 stains all bacteria in a population, i.e. those with intact and those with damaged membranes. In contrast, propidium iodide (PI) penetrates only bacteria with damaged membranes, thereby making quantification of bacterial viability possible.

[3] = tested on: P. aeruginosa (PAO1); assay: Antimicrobial activity in human serum and plasma (flow cytometry, PI/Syto9); type: cell-based, Pseudomonas aeruginosa; details: P. aeruginosa PAO1 ~10^8 cells/ml
Source text: It has been reported that the antimicrobial activity of antimicrobial peptides are inhibited by their binding to different factors in human plasma (Wang, Y., et al., Apolipoprotein A-I binds and inhibits the human antibacterial/cytotoxic peptide LL-37. J Biol Chem, 1998. 273(50): p. 33115-8), serum and is influenced by pH and ion composition (Johansson, J., et al., Conformation-dependent antibacterial activity of the naturally occurring human peptide LL-37. J Biol Chem, 1998. 273(6): p. 3718-24). To investigate the potential of GA for systemic application, bacterial isolates of P. aeruginosa (PAO1, ˜10^8 cells/ml) were incubated with increasing concentrations of GA and compared to LL-37. Bacterial survival and enumeration was evaluated by a flow cytometry bead standard and stained with propidium iodide and Syto9 following procedures as previously described above in the antimicrobial susceptibility testing by flow cytometry-based assay. […] All experiments were performed as four replicates.

[4] = tested on: E. coli (NCTC 10418); assay: Transmission electron microscopy of treated bacteria; type: cell-based, Escherichia coli
Source text: (§4) Transmission electron microscopy (TEM) was applied to examine the ultrastructural changes in P. aeruginosa (PAO1), S. aureus (Wood 46) and E. coli (NCTC 10418) induced after treatment with GA and LL-37. […] This critical alteration in the outer membrane of E. coli has previously been described as a disintegration of the outer membrane into micelles and vesicle-like structures (Meincken, M., D. L. Holroyd, and M. Rautenbach, Atomic force microscopy study of the effect of antimicrobial peptides on the cell envelope of Escherichia coli. Antimicrob Agents Chemother, 2005. 49(10): p. 4085-92). […] After incubation with LL-37 and GA, we found burst cells, but this observation was most significant after treatment with LL-37 (FIG. 9). Scale bar, 0.5 μm. Experiments were performed as 2 replicates.

[5] = tested on: P. aeruginosa (PAO1); assay: as above; type: cell-based, Pseudomonas aeruginosa
Source text: as §4

[6] = tested on: S. aureus (Wood 46); assay: as above; type: cell-based, Staphylococcus aureus
Source text: as §4

[7] = tested on: S. aureus (Wood 46, NCTC 7121); assay: Antimicrobial susceptibility testing by flow cytometry-based assay (LIVE/DEAD BacLight, Syto9/PI); type: cell-based, Staphylococcus aureus; details: 30 minutes
Procedure: as §1, §2, §3

[8] = within the 30 minutes of treatment
[9] = positive control, 7% isopropanol

Piperacillin/Tazobactam
PI positivity ([1]; 50 μg/ml, 30 minutes): about 30%
antimicrobial activity (in words) [1, 8]: no antimicrobial activity
percentage of bacteria testing positive for PI ([2]; 50 μg/ml, 30 minutes): 10%
percentage of bacteria testing positive for Syto-9 ([2]; 50 μg/ml, 30 minutes): 86.8%
antimicrobial activity (in words) [2, 8]: no antimicrobial activity

CC[C@H](C)[C@H](NC(=O)[C@H](CCCCN)NC(=O)[C@H](CCC(=O)O)NC(=O)[C@H](CCCCN)NC(=O)[C@H](CO)NC(=O)[C@H](CCCCN)NC(=O)[C@H](CCCNC(=N)N)NC(=O)[C@H](Cc1ccccc1)NC(=O)[C@H](Cc1ccccc1)NC(=O)[C@H](CC(=O)O)NC(=O)CNC(=O)[C@H](CC(C)C)NC(=O)[C@@H](N)CC(C)C)C(=O)NCC(=O)N[C@@H](CCCCN)C(=O)N[C@@H](CCC(=O)O)C(=O)N[C@@H](Cc1ccccc1)C(=O)N[C@@H](CCCCN)C(=O)N[C@@H](CCCNC(=N)N)C(=O)N[C@H](C(=O)N[C@H](C(=O)N[C@@H](CCC(N)=O)C(=O)N[C@@H](CCCNC(=N)N)C(=O)N[C@H](C(=O)N[C@@H](CCCCN)C(=O)N[C@@H](CC(=O)O)C(=O)N[C@@H](Cc1ccccc1)C(=O)N[C@@H](CC(C)C)C(=O)N[C@@H](CCCNC(=N)N)C(=O)N[C@@H](CC(N)=O)C(=O)N[C@@H](CC(C)C)C(=O)N[C@H](C(=O)N1CCC[C@H]1C(=O)N[C@@H](CCCNC(=N)N)C(=O)N[C@H](C(=O)N[C@@H](CCC(=O)O)C(=O)N[C@@H](CO)C(=O)O)[C@@H](C)O)C(C)C)[C@@H](C)CC)C(C)C)[C@@H](C)CC [LL-37]
antimicrobial activity in human plasma and serum (in words) [3]: retains antimicrobial activity
ultrastructural changes (TEM, in words) [4]: Signs of damage to the bacterial membrane
antimicrobial activity (in words) [1, 8]: more potent than when treating bacteria with 7% isopropanol
decreased bacterial inoculum [1, 8]: ~75%
increased PI positivity ([1]; within the 30 minutes of treatment (FIG. 4 overview)): ~50%
percentage of bacteria testing positive for PI ([2]; 50 μg/ml, 30 minutes): 17.8%
percentage of bacteria testing positive for Syto-9 ([2]; 50 μg/ml, 30 minutes): 75.1%
ultrastructural changes (TEM, in words) [5]: dramatically reduced number of P. aeruginosa
ultrastructural changes (TEM, in words) [6]: burst cells
antimicrobial activity (in words) [7]: more potent than Vancomycin
percentage of bacteria testing positive for PI [7]: 31.9%

CC(C)O [isopropanol]
percentage of bacteria testing positive for PI [2, 9]: 32.2%
percentage of bacteria testing positive for Syto-9 [2, 9]: 61.7%

CN[C@H](CC(C)C)C(=O)N[C@H]1C(=O)N[C@@H](CC(N)=O)C(=O)N[C@H]2C(=O)N[C@H]3C(=O)N[C@H](C(=O)N[C@H](C(=O)O)c4cc(O)cc(O)c4-c4cc3ccc4O)[C@H](O)c3ccc(c(Cl)c3)Oc3cc2cc(c3O[C@@H]2O[C@H](CO)[C@@H](O)[C@H](O)[C@H]2O[C@H]2C[C@](C)(N)[C@H](O)[C@H](C)O2)Oc2ccc(cc2Cl)[C@H]1O [Vancomycin]
antimicrobial activity (in words) [7]: comparable to the one obtained for LL-37
